Results from US6326401A, “Formulation for the oromucosal, in particular pernasal, route” (Immunotech, priority 1998, dated 2001).
Read-outs that look alike come from different tables or passages of the source.

Tests used:
[1] = Compared bioavailability of sublingual formulations without and with Labrasol (Example 7); type: in vivo, healthy volunteer subjects; conditions: 10 mg, sublingual tablet; for AUC at 6 h / Tmax: human, serum; for AUC at 6 h: observation period 6 hours; for Tmax: read-out: apparent Tmax (converted)
Protocol: The serum concentrations of IS 159 as a function of time were measured on healthy volunteer subjects. These subjects received an identical amount of active substance IS 159 (10 mg) in the form of tablets in the absence or presence of Labrasol® (2%) by sublingual administration.

[2] = Dose/effect and reproducibility of bioavailability, nasal 4 mg and 7 mg (Example 6); type: in vivo, human subjects; conditions: with Labrasol
Protocol: The black squares represent the dose of 4 mg and the white squares represent the dose of 7 mg.

[3] = Compared bioavailability of aqueous nasal solution/aqueous subcutaneous solution (Example 9); type: in vivo, healthy volunteer subjects; conditions: 4 mg; for Tmax / half-life: human, serum; for half-life: read-out: Terminal half-life (converted)
Protocol: (§1) The serum concentrations of IS 159 as a function of time were measured on healthy volunteer subjects.

[4] = Bioavailability test: serum IS 159 after nasal administration of the solution and control solution of example 1 (Example 4); type: in vivo, man; conditions: for AUC at 4 h / Tmax: human, serum; for AUC at 4 h: observation period 4 hours; for Tmax: read-out: apparent Tmax (converted)
[5] = Comparison between aqueous nasal solution and sublingual formulation (Example 8); type: in vivo, healthy volunteer subjects; conditions: human, serum, 10 mg; for AUC(0-inf): read-out: AUC from time 0 to infinity
Protocol: as §1

[6] = Reproducibility of bioavailability of the aqueous nasal solution plus Labrasol (Example 5); type: in vivo, human subjects; conditions: 100 μl (4 mg), with Labrasol, 8 subjects
[7] = control solution without Labrasol

`NCCc1c[nH]c2ccc(OCC(=O)NC(Cc3ccc(O)cc3)C(=O)NCC(N)=O)cc12` (centres unmarked) [IS 159, tryptamine 5-O-carboxymethyl-tyrosyl-glycinamide] showed an AUC at 6 h ([1]; control (2% lactose)) of 0.42 ng·h/mL, a Tmax ([1]; control without Labrasol) of 45 min and an AUC at 6 h ([1]; with 2% Labrasol) of 9.72 ng·h/mL. For the same compound, the Tmax ([1]; with 2% Labrasol) was 35 min, the “absorption (Cmax)” value ([1]; with 2% Labrasol vs control) was “increases the absorption (Cmax)” and the “intra-individual and interindividual reproducibility of the pharmacokinetic parameters” value [2] was “good”. For the same compound, the “ratios of the AUCs and the maximum concentrations” value [2] was “constant and high”, the Tmax ([3]; sc, mean s.c.) was 30 min and the half-life ([3]; sc, mean s.c.) was 150 min. The Tmax ([3]; mean nasal, with Labrasol) was 15 min, the half-life ([3]; mean nasal, with Labrasol) was 150 min and the AUC/dose ([3]; mean nasal, with Labrasol) was 14 (h.ng/ml)(mg dose IS 159). The Cmax/dose ([3]; mean nasal, with Labrasol) was 11 ng/mL, the AUC/dose ([3]; mean s.c.) was 36 (h.ng/ml)(mg dose IS 159) and the Cmax/dose ([3]; mean s.c.) was 20 ng/mL. For the same compound, the “AUC/dose, ratio Nasal/s.c.” value ([3]; nasal (with Labrasol) / s.c.) was 39%, the “Cmax/dose, ratio Nasal/s.c.” value ([3]; nasal (with Labrasol) / s.c.) was 55% and the “Tmax, Nasal/s.c.” value ([3]; nasal (with Labrasol) vs s.c.) was “reduced”. The bioavailability ([3]; nasal solution with Labrasol, compared with subcutaneous) was “significant and faster than by the subcutaneous route”, the “terminal half-life, change” value ([3]; nasal vs subcutaneous) was “not changed significantly” and the AUC at 4 h [4, 7] was 12 ng·h/mL. The Tmax [4, 7] was 30 min, the AUC at 4 h ([4]; with Labrasol) was 85 ng·h/mL and the Tmax ([4]; with Labrasol) was 10 to 15 min. The “absorption (Cmax)” value ([4]; with Labrasol vs control solution) was “increases the absorption (Cmax)”, the AUC(0-inf) ([5]; nasal solution with Labrasol) was 166 ng·h/mL and the AUC(0-inf) ([5]; sublingual tablet with 2% Labrasol) was 12 ng·h/mL. For the same compound, the half-life ([5]; nasal and sublingual with Labrasol, read-out: terminal half-life (converted)) was roughly 150 min and the “interindividual and intraindividual reproducibilities of the pharmacokinetic parameters” value [6] was “good”.
